Source: ChEMBL document CHEMBL1156467, “Inhibition of GLI-mediated transcription and tumor cell growth by small-molecule antagonists” (Proc Natl Acad Sci U S A, 2007)
Active and inactive are the calls of the source. The rule behind the calls is not given here.

Columns and labels:
[1] = target: T1, Zinc finger protein GLI1 (Homo sapiens) (UniProt P08151); assay: Reduction of GLI1 mediated transcription in HEK293 cells by luciferase reporter assay; type: cell-based
T1 sequence (whole entry): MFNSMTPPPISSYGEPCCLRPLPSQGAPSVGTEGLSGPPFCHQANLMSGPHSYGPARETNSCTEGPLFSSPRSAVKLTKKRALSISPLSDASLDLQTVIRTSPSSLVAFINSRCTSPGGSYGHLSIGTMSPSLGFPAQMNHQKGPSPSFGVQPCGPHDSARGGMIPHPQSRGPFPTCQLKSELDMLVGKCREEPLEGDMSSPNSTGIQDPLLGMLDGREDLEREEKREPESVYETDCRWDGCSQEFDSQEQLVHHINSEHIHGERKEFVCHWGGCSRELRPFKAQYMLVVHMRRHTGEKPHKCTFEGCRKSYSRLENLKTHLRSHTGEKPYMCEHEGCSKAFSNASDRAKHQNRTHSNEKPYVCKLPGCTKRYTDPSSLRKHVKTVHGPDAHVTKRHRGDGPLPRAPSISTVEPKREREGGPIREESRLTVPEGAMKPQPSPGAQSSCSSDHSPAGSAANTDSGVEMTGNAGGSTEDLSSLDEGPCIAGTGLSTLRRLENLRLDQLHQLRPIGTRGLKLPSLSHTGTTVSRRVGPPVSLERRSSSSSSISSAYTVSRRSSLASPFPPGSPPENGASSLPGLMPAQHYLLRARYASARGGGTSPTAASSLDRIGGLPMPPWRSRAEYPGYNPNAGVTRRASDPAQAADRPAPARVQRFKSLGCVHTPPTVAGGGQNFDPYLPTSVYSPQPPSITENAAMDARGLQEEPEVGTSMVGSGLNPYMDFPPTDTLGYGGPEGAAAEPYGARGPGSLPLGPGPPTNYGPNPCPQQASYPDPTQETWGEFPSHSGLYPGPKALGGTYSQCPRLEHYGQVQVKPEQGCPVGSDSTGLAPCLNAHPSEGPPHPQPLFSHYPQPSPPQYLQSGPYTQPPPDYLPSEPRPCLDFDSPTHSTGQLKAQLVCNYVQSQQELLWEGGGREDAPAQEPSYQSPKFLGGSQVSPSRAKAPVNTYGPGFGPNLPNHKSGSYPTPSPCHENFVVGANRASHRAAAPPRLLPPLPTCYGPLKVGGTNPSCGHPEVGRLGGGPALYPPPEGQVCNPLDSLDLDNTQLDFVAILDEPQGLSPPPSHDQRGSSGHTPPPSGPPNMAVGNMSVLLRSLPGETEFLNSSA

[2] = target: T2, Zinc finger protein GLI1 (Mus musculus) (UniProt P47806); assay: Inhibition of GLI1 induced hedgehog signaling in mouse NIH3T3 cells; type: cell-based
T2 sequence (whole entry): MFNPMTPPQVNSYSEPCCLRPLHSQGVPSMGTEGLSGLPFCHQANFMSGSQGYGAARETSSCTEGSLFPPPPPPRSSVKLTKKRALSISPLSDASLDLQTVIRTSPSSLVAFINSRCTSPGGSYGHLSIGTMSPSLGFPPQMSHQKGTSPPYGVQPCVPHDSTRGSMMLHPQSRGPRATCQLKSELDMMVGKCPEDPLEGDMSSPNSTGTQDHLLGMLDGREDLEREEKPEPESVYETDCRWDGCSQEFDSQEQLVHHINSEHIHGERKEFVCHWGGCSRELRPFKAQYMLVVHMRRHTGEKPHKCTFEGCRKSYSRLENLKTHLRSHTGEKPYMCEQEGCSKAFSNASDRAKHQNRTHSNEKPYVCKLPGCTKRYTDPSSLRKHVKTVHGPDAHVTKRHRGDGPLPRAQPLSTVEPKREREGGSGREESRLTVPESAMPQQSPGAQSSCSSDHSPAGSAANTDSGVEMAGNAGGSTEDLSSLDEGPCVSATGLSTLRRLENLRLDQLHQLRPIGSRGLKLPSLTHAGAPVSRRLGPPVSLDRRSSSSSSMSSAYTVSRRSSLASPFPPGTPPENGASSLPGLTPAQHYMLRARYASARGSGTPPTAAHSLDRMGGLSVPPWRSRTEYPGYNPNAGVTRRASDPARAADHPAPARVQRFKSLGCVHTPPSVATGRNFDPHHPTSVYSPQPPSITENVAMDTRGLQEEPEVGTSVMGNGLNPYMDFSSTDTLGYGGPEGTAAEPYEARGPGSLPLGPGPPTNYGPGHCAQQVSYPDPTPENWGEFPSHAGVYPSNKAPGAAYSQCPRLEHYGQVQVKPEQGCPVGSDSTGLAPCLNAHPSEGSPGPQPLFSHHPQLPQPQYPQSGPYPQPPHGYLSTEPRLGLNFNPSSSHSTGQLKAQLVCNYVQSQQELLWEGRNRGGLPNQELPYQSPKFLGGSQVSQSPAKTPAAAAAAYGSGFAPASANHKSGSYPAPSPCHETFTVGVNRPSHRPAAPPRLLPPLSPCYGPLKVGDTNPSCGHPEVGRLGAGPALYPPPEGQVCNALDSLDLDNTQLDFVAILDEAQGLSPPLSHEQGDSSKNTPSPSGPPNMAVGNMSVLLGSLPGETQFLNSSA

HepG2 [3] = assay: Inhibition of Gli1 dependent growth of human HepG2 cells at 5 uM; type: functional; design: scale not given: the % may be the effect or the level left
[4] = Antiproliferative activity against Ptch deficient mouse embryonic fibroblast at 10 uM by BrdU incorporation; type: functional
HEK293 [5] = assay: Inhibition of beta galactosidase in HEK293 cells; type: cell-based; settings: Homo sapiens
PANC-1 [6] = assay: Reduction in GLI1 expression in human PANC1 cells at 5 uM; type: functional, cell-based
[7] = target: T1, Zinc finger protein GLI1 (Homo sapiens); assay: Alteration in DNA binding to GLI1 in HEK293 cells; type: cell-based
Jurkat [8] = assay: Inhibition of Gli1 dependent growth of human Jurkat cells at 5 uM; type: functional; design: scale not given: the % may be the effect or the level left
[9] = Inhibition of Hedgehog signaling in […] Shh-L2 cells; type: functional, cell-based
PANC-1 [10] = assay: Reduction in PTCH expression in human PANC1 cells at 5 uM; type: functional, cell-based
HEK293 [11] = assay: Inhibition of nuclear accumulation of wild type GLI in HEK293 cells; type: functional, cell-based; settings: Homo sapiens
NIH3T3 [12] = assay: Effect on Hedgehog signaling in mouse NIH3T3 cells assessed as activation of TNF signaling; type: functional, cell-based
NIH3T3 [13] = assay: Effect on Hedgehog signaling in mouse NIH3T3 cells assessed as transactivation of glucocorticoid receptor; type: functional, cell-based
[14] = Reduction in GlI1 expression in human 22Rv cells at 5 uM; type: functional, cell-based
HepG2 [15] = assay: Induction of apoptosis in human HepG2 cells assessed as caspase3/7 cleavage by luminometric assay; type: functional, cell-based
[16] = Reduction in expression of Hedgehog target gene Gli1 in Sufu deficient mouse embryonic fibroblast; type: functional
Mus musculus [17] = species: Mus musculus; assay: Antiproliferative activity against mouse embryonic fibroblast at 10 uM assessed as microarray method; type: functional
Jurkat [18] = assay: Induction of apoptosis in human Jurkat cells assessed as caspase3/7 cleavage by luminometric assay; type: functional, cell-based
[19] = Reduction in PTCH expression in human 22Rv cells at 5 uM; type: functional, cell-based
[20] = target: T1, Zinc finger protein GLI1 (Homo sapiens); assay: Inhibition of GLI via PKA activation in HEK293 cells; type: cell-based
[21] = target: Zinc finger protein GLI2 (Homo sapiens) (UniProt P10070); assay: Reduction of GLI2 mediated transcription in HEK293 cells by luciferase reporter assay; type: cell-based
Sequence of Zinc finger protein GLI2 (Homo sapiens) (P10070 whole entry): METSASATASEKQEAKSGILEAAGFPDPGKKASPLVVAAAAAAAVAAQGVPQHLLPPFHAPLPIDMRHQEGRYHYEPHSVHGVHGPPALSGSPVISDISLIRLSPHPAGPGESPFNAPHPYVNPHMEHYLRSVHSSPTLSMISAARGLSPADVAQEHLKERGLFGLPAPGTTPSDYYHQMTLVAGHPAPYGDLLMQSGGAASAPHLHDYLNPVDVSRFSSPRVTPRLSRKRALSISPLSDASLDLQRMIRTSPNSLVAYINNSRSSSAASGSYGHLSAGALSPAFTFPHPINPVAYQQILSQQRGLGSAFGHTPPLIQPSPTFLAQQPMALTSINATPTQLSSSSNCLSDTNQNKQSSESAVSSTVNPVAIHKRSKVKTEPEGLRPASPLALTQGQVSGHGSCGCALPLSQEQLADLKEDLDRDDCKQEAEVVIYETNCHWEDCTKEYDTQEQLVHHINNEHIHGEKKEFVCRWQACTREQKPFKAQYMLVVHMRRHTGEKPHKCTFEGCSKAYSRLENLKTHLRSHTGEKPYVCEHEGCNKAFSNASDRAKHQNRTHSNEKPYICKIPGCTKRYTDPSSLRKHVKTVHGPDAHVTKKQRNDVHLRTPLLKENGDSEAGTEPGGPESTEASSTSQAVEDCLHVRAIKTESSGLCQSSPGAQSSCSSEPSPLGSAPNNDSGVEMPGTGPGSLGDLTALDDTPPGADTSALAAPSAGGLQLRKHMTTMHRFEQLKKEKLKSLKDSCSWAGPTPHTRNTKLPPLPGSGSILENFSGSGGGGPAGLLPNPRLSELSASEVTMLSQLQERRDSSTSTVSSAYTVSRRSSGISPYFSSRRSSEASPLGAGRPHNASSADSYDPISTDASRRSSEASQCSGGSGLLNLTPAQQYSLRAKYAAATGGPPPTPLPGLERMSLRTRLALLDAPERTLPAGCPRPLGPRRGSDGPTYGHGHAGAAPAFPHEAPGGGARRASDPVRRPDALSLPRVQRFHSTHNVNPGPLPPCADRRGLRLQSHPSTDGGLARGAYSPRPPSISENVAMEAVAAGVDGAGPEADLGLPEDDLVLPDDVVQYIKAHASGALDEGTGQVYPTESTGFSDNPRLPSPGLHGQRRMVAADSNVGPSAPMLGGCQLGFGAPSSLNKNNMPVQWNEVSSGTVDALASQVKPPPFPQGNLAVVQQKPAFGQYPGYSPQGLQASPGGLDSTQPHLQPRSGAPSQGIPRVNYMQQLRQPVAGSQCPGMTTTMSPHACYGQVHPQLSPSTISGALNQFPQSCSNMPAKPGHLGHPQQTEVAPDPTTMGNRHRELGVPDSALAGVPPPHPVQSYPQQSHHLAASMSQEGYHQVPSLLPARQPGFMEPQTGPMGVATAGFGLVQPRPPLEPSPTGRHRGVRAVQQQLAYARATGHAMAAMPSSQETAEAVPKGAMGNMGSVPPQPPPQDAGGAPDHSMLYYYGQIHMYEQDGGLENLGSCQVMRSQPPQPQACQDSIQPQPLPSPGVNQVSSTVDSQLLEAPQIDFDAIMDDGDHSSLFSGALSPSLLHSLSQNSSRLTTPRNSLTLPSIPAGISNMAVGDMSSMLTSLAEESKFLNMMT

MEF = assay: Reduction in expression of Hedgehog target gene Hip1 in Sufu deficient mouse MEF cells; type: functional, cell-based
Mus musculus [22] = species: Mus musculus; assay: Reduction of Gil1 mRNA levels at 10 uM in Ptch deficient mouse embryonic fibroblast; type: functional
PANC-1 [23] = assay: Inhibition of Gli1 dependent growth of human PANC1 cells at 5 uM; type: functional; design: scale not given: the % may be the effect or the level left
[24] = Inhibition of Gli1 dependent growth of human 22Rv cells at 5 uM; type: functional; design: scale not given: the % may be the effect or the level left
Mus musculus [25] = species: Mus musculus; assay: Reduction of Ptch1-lacZ level in mouse embryonic fibroblast by luminometric assay; type: functional
NIH3T3 [26] = assay: Induction of apoptosis in mouse NIH3T3 cells assessed as caspase3/7 cleavage by luminometric assay; type: functional, cell-based
NIH3T3 [27] = assay: Effect on Hedgehog signaling in mouse NIH3T3 cells assessed as transactivation of Ras-Raf-Mek-Mapk cascade; type: functional, cell-based
HepG2 [28] = assay: Cytotoxicity against human HepG2 cells at 10 uM after 48 hrs assessed as reduction in cell viability by MTS assay; type: functional, cell-based
HEK293 [29] = assay: Inhibition of nuclear accumulation of GLI mutant in HEK293 cells; type: functional, cell-based; settings: Homo sapiens
NIH3T3 [30] = assay: Effect on Hedgehog signaling in mouse NIH3T3 cells assessed as activation of NF kappaB; type: functional, cell-based
NIH3T3 [31] = assay: Inhibition of Hedgehog/Gli1 mediated transformation in mouse NIH3T3 cells at 10 uM; type: functional, cell-based
Mus musculus [32] = species: Mus musculus; assay: Cytotoxicity against wild type mouse embryonic fibroblast at 10 uM after 48 hrs assessed as reduction in cell viability by MTS assay; type: functional
Homo sapiens = assay: Antitumor activity in GLI1 positive human 22Rv cells xenografted mouse model at 50 mg/kg, sc after 18 days; type: functional, organism-based; design: dose 50 mg/kg
DU146 = assay: Induction of apoptosis in human […] cells assessed as caspase3/7 cleavage by luminometric assay; type: functional, cell-based
HEK293 [33] = assay: Induction of apoptosis in HEK293 cells assessed as caspase3/7 cleavage by luminometric assay; type: functional, cell-based; settings: Homo sapiens
[34] = Reduction of expression of PTCH mRNA in human 22Rv cells; type: functional, cell-based
CWR22R = assay: Induction of apoptosis in human 22Rv1 cells assessed as caspase3/7 cleavage by luminometric assay; type: functional, cell-based
NIH3T3 [35] = assay: Cytotoxicity against mouse NIH3T3 cells at 10 uM after 48 hrs assessed as reduction in cell viability by MTS assay; type: functional, cell-based

CN(C)c1ccccc1CN1CCCN(Cc2ccccc2N(C)C)C1c1ccncc1
Activity [1]: Active | Activity [2]: Active | Activity (HepG2 [3]): 0% | Activity [4]: 40% | Activity (HEK293 [5]): Active | Activity (PANC-1 [6]): Active | Activity [7]: inactive | Activity (Jurkat [8]): 0% | IC50 [9]: 5 µM | Activity (PANC-1 [10]): Active | Activity (HEK293 [11]): Active | Activity (NIH3T3 [12]): inactive | Activity (NIH3T3 [13]): inactive | Activity [14]: Active | Activity (HepG2 [15]): inactive | Activity [16]: Active | Activity (Mus musculus [17]): Active | Activity (Jurkat [18]): inactive | Activity [19]: Active | Activity [20]: inactive | Activity [21]: Active | Activity (MEF): Active | Activity (Mus musculus [22]): Active | Activity (PANC-1 [23]): 40% | Activity [24]: 40% | Activity (Mus musculus [25]): Active | Activity (NIH3T3 [26]): inactive | Activity (NIH3T3 [27]): inactive | Activity (HepG2 [28]): inactive | Activity (HEK293 [29]): Active | Activity (NIH3T3 [30]): inactive | Activity (NIH3T3 [31]): Active | Activity (Mus musculus [32]): inactive | Activity (Homo sapiens): Active | Activity (DU146): inactive | Activity (HEK293 [33]): inactive | Activity [34]: Active | Activity (CWR22R): inactive | Activity (NIH3T3 [35]): inactive

c1cc(-c2sc(-c3ccncc3)c(-c3ccncc3)c2-c2ccncc2)ccn1
Activity [1]: Active | Activity [2]: Active | Activity (HepG2 [3]): 0% | Activity [4]: 40% | Activity (HEK293 [5]): Active | Activity (PANC-1 [6]): Active | Activity [7]: inactive | Activity (Jurkat [8]): 0% | IC50 [9]: 5 µM | Activity (PANC-1 [10]): Active | Activity (HEK293 [11]): Active | Activity (NIH3T3 [12]): inactive | Activity (NIH3T3 [13]): inactive | Activity [14]: Active | Activity (HepG2 [15]): inactive | Activity [16]: Active | Activity (Jurkat [18]): inactive | Activity [19]: Active | Activity [20]: inactive | Activity [21]: Active | Activity (MEF): Active | Activity (Mus musculus [22]): Active | Activity (PANC-1 [23]): 40% | Activity [24]: 40% | Activity (Mus musculus [25]): Active | Activity (NIH3T3 [26]): inactive | Activity (NIH3T3 [27]): inactive | Activity (HEK293 [29]): Active | Activity (NIH3T3 [30]): inactive | Activity (NIH3T3 [31]): Active | Activity (Homo sapiens): Active | Activity (DU146): inactive | Activity (HEK293 [33]): inactive | Activity [34]: Active | Activity (CWR22R): inactive

CC1=C2C[C@H]3[C@@H](CC=C4C[C@@H](O)CC[C@@]43C)[C@@H]2CC[C@]12O[C@@H]1C[C@H](C)CN[C@H]1[C@H]2C [CYCLOPAMINE]
Activity [4]: 40% | Activity (HEK293 [5]): Active | Activity [16]: inactive | Activity (MEF): inactive | Activity (Mus musculus [22]): Active | Activity (Mus musculus [25]): Active | Activity [34]: Active
